8 compounds from ChEMBL document CHEMBL1156695, “The novel primaquine derivatives of N-alkyl, cycloalkyl or aryl urea: synthesis, cytostatic and antiviral activity evaluations” (Eur J Med Chem, 2008) can be followed below.

The structures appear in SMILES notation. The source made the active and inactive calls. No cut-off for these calls is given here.

One data set relates to Human respirovirus 3. In words: Antiviral activity against parainfluenza virus 3 infected in african green monkey Vero cells assessed as reduction of virus-induced cytopathogenicity. It is filed as functional, organism-based.
The next data set relates to NCI-H460. In words: Cytostatic activity against human H460 cells after 72 hrs by MTT assay. The class given is functional, cell-based. To be noted: NCI-H460, 72 h. For orientation: Formazan colour is commonly taken as a measure of viable cells.
The test system of another data set is Sindbis virus. In words: Antiviral activity against Sindbis virus infected in african green monkey Vero cells assessed as reduction of virus-induced cytopathogenicity. It is filed as functional, organism-based. On the technique in general: Damage to the host cells serves as the signal in cytopathic effect assays.
Another data set relates to HeLa. Kind of data set: Cytostatic activity against human HeLa cells after 72 hrs by MTT assay. It is filed as functional, cell-based.
The nature of data set [1]: Cytotoxicity against HEL cells assessed as reduction in cell growth. It is filed as cell-based. To be noted: human.
The next data set concerns SW-620. In words: Cytostatic activity against human SW620 cells after 72 hrs by MTT assay. To be noted: SW-620, 72 h. The class given is functional, cell-based.
Data set [2] concerns Coxsackievirus B4. In words: Antiviral activity against Coxsackievirus B4 infected in HeLa cells assessed as reduction of virus-induced cytopathogenicity. It is filed as functional, organism-based.
Data set [3] is described as follows: Cytostatic activity against human Molt4/C8 cells after 72 hrs by MTT assay. The class given is functional, cell-based. As to conditions: MOLT-4, 72 h.
A further data set has as its system Human alphaherpesvirus 2. Kind of data set: Antiviral activity against HSV2 infected in HEL cells assessed as reduction of virus-induced cytopathogenicity. It is filed as functional, organism-based.
A further data set concerns Punta Toro virus. In words: Antiviral activity against Punta Toro virus infected in african green monkey Vero cells assessed as reduction of virus-induced cytopathogenicity. It is filed as functional, organism-based.
A short description of data set [4]: Cytotoxicity against HEL cells assessed as change in cell morphology. The class given is cell-based. To be noted: human.
The next data set deals with Human alphaherpesvirus 1. Kind of data set: Antiviral activity against HSV1 infected in HEL cells assessed as reduction of virus-induced cytopathogenicity. The class given is functional, organism-based.
Data set [5] has as its system Vesicular stomatitis virus. In words: Antiviral activity against vesicular stomatitis virus infected in HeLa cells assessed as reduction of virus-induced cytopathogenicity. It is filed as functional, organism-based.
Another data set relates to L1210. In words: Cytostatic activity against mouse L1210 cells after 72 hrs by MTT assay. As to conditions: L1210, 72 h. It is filed as functional, cell-based.
The next data set has as its system CCRF-CEM. In words: Cytostatic activity against human CEM cells after 72 hrs by MTT assay. The class given is functional, cell-based.
The subject of data set [6] is Coxsackievirus B4. Kind of data set: Antiviral activity against Coxsackievirus B4 infected in african green monkey Vero cells assessed as reduction of virus-induced cytopathogenicity. It is filed as functional, organism-based.
The subject of data set [7] is Mammalian orthoreovirus 1. Kind of data set: Antiviral activity against Reovirus 1 infected in african green monkey Vero cells assessed as reduction of virus-induced cytopathogenicity. The class given is functional, organism-based.
Data set [8] concerns Human betaherpesvirus 5. Kind of data set: Antiviral activity against HCMV AD169 infected in HEL cells assessed as reduction of virus-induced cytopathogenicity after 3 days. The class given is functional, organism-based. To be noted: Human betaherpesvirus 5, AD169, HEL, 72 h.
The test system of another data set is MIA PaCa-2. In words: Cytostatic activity against human MiaPaCa2 cells after 72 hrs by MTT assay. It is filed as functional, cell-based. As to conditions: MIA PaCa-2, 72 h.
Data set [9] relates to Respiratory syncytial virus. In words: Antiviral activity against respiratory syncytial virus infected in HeLa cells assessed as reduction of virus-induced cytopathogenicity. It is filed as functional, organism-based.
For data set [10], the system named is Vesicular stomatitis virus. Kind of data set: Antiviral activity against vesicular stomatitis virus infected in HEL cells assessed as reduction of virus-induced cytopathogenicity. The class given is functional, organism-based.
Another data set concerns MCF7. In words: Cytostatic activity against human MCF7 cells after 72 hrs by MTT assay. It is filed as functional, cell-based. To be noted: MCF7, 72 h.
Data set [11] can be described thus: Cytostatic activity against human WI38 cells after 72 hrs by MTT assay. To be noted: WI-38, 72 h. It is filed as cell-based.
Data set [12] concerns Human betaherpesvirus 5. In words: Antiviral activity against HCMV Davis infected in HEL cells assessed as reduction of virus-induced cytopathogenicity after 3 days. The class given is functional, organism-based. As to conditions: Human betaherpesvirus 5, Davis, 72 h.

For orientation: IC50 means the point on the concentration scale where inhibition reaches its midpoint. One may read the CC50 as the concentration at which the toxic effect on the cells reaches its halfway point. Usually EC50 stands for the concentration needed to bring the measured effect to its halfway point. On to `COc1cc(NC(C)CCCNC(=O)NCCc2ccccc2)c2ncccc2c1` (stereo unspecified), for which the outcome in the data set with Human respirovirus 3, with Sindbis virus, in the data set on Coxsackievirus B4 [2], with Human alphaherpesvirus 2, with Punta Toro virus and in the data set with Human alphaherpesvirus 1 was inactive. For the same compound, the outcome (in data set [5]; in the data set with Coxsackievirus B4 [6]; in data set [7]; in data set [9]; in [10]) was inactive. Besides, the 50% inhibitory concentration (IC50) in the data set on NCI-H460 was 54 µM; in the data set on HeLa, greater than 100 µM; in the data set with SW-620, 32 µM; in data set [3] it was 45 µM; in the data set on L1210 it was 24 µM; in the data set with CCRF-CEM it was 34 µM. The 50% inhibitory concentration (IC50) was 30 µM with MIA PaCa-2, 27 µM in the data set with MCF7 and greater than 100 µM in [11]. For the same compound, the CC50 in data set [1] turned out to be 56 µM. Moreover, the MCC in data set [4] was greater than 100 µM. In addition, the EC50 in the data set with Human betaherpesvirus 5 [8] was determined as 12.6 µM; with Human betaherpesvirus 5 [12], 2.9 µM.

Take `COc1cc(NC(C)CCCNC(=O)NC2CCCC2)c2ncccc2c1` (stereo unspecified): the outcome in the data set with Human respirovirus 3, with Sindbis virus, in the data set with Coxsackievirus B4 [2], in the data set with Human alphaherpesvirus 2, with Punta Toro virus and in the data set on Human alphaherpesvirus 1 was inactive. The outcome (in data set [5]; in the data set with Coxsackievirus B4 [6]; in data set [7]; in data set [9]; in data set [10]) was inactive. The IC50 in the data set with NCI-H460 was 25 µM; in the data set on HeLa, 21 µM; in the data set with SW-620 it was 19 µM; in [3], 44 µM; with L1210 it was 41 µM; in the data set with CCRF-CEM, 41 µM. The half-inhibitory concentration (IC50) came out at 19 µM in the data set with MIA PaCa-2, 30 µM with MCF7 and 29 µM in data set [11]. Moreover, the CC50 in [1] came to 56 µM. For the same compound, in data set [4], the MCC was determined as 100 µM. Besides, the EC50 in the data set on Human betaherpesvirus 5 [8] is greater than 20 µM; in the data set on Human betaherpesvirus 5 [12], 12 µM.

Consider `COc1cc(NC(C)CCCNC(=O)NCC2CCCCC2)c2ncccc2c1` (stereo unspecified), for which the outcome in the data set with Human respirovirus 3, in the data set with Sindbis virus, in the data set on Coxsackievirus B4 [2], with Human alphaherpesvirus 2, in the data set with Punta Toro virus and with Human alphaherpesvirus 1 was inactive. Moreover, the outcome (in data set [5]; in the data set on Coxsackievirus B4 [6]; in data set [7]; in [9]; in [10]) was inactive. Besides, the IC50 was greater than 100 µM in the data set on NCI-H460; greater than 100 µM with HeLa; 61 µM in the data set with SW-620; 53 µM in data set [3]; 22 µM with L1210; 22 µM in the data set on CCRF-CEM. Besides, the IC50 with MIA PaCa-2 was 60 µM; with MCF7, 61 µM; in data set [11], greater than 100 µM. The cytotoxic concentration (CC50) in [1] amounted to 74 µM. Also, the MCC in [4] is 100 µM. Moreover, the half-maximal effective concentration (EC50) turned out to be 15.3 µM in the data set with Human betaherpesvirus 5 [8] and 7.6 µM with Human betaherpesvirus 5 [12].

As for `COc1cc(NC(C)CCCNC(=O)NC(c2ccccc2)c2ccccc2)c2ncccc2c1` (stereo unspecified), the outcome with Human respirovirus 3, with Sindbis virus, with Coxsackievirus B4 [2], in the data set on Human alphaherpesvirus 2, in the data set on Punta Toro virus and with Human alphaherpesvirus 1 was inactive. In addition, the outcome (in data set [5]; in the data set with Coxsackievirus B4 [6]; in data set [7]; in data set [9]; in data set [10]) was inactive. For the same compound, the IC50 with NCI-H460 was greater than 100 µM; in the data set with HeLa, 100 µM; with SW-620, 58 µM; in [3] it was no less than 500 µM; with L1210, greater than 500 µM; with CCRF-CEM, 142 µM. For the same compound, the IC50 is 100 µM with MIA PaCa-2, greater than 100 µM in the data set on MCF7 and greater than 100 µM in data set [11]. Besides, the cytotoxic concentration (CC50) in [1] is greater than 100 µM. Further, the MCC in [4] was greater than 100 µM. Further, the EC50 in the data set with Human betaherpesvirus 5 [8] and in the data set with Human betaherpesvirus 5 [12] was greater than 100 µM each time.

Turning to `COc1cc(NC(C)CCCNC(=O)N(C2CCCCC2)C2CCCCC2)c2ncccc2c1` (stereo unspecified), the outcome in the data set on Human respirovirus 3, in the data set with Sindbis virus, in the data set on Coxsackievirus B4 [2], in the data set with Human alphaherpesvirus 2, in the data set with Punta Toro virus and with Human alphaherpesvirus 1 was inactive. In addition, the outcome (in data set [5]; in the data set on Coxsackievirus B4 [6]; in [7]; in [9]; in data set [10]) was inactive. Also, the IC50 in the data set on NCI-H460 is 21 µM; with HeLa, 23 µM; in the data set on SW-620 it was 15 µM; in data set [3], 36 µM; in the data set with L1210, 15 µM; with CCRF-CEM it was 13 µM. For the same compound, the concentration for half-maximal inhibition (IC50) in the data set on MIA PaCa-2 worked out at 17 µM; in the data set on MCF7, 9 µM; in [11], 18 µM. In addition, the CC50 in data set [1] came out at 27 µM. For the same compound, the MCC in [4] amounted to 4 µM. In addition, the EC50 in the data set with Human betaherpesvirus 5 [8] and with Human betaherpesvirus 5 [12] was greater than 0.8 µM each time.

As to `COc1cc(NC(C)CCCNC(=O)NCc2ccncc2)c2ncccc2c1` (stereo unspecified), the result with Human respirovirus 3, in the data set on Sindbis virus, in the data set with Coxsackievirus B4 [2], with Human alphaherpesvirus 2, in the data set with Punta Toro virus and in the data set with Human alphaherpesvirus 1 was inactive. Besides, the outcome (in data set [5]; in the data set with Coxsackievirus B4 [6]; in data set [7]; in data set [9]; in data set [10]) was inactive. Besides, the IC50 in the data set on NCI-H460 amounted to 48 µM; with HeLa it was 18 µM; in the data set with SW-620 it was 2 µM; in data set [3], 24 µM; in the data set on L1210, 3 µM; with CCRF-CEM, 2.9 µM. The IC50 was found to be 20 µM in the data set with MIA PaCa-2, 30 µM in the data set with MCF7 and 10 µM in data set [11]. Also, in data set [1], the cytotoxic concentration (CC50) stood at 72 µM. The MCC in [4] was found to be 100 µM. For the same compound, the EC50 in the data set with Human betaherpesvirus 5 [8] came out at 13.4 µM; in the data set with Human betaherpesvirus 5 [12] it was 1.2 µM.

With `Nc1ccn(C[C@@H](CO)OCP(=O)(O)O)c(=O)n1` [CIDOFOVIR], the MCC in [4] is greater than 1270 µM.

Consider `Nc1nc(O)c2ncn(COC(CO)CO)c2n1` [GANCICLOVIR], for which the MCC in [4] is greater than 1580 µM.
